The structures appear in SMILES notation.

human Bruton's Tyrosine Kinase (Btk), sequence (Q06187 whole entry): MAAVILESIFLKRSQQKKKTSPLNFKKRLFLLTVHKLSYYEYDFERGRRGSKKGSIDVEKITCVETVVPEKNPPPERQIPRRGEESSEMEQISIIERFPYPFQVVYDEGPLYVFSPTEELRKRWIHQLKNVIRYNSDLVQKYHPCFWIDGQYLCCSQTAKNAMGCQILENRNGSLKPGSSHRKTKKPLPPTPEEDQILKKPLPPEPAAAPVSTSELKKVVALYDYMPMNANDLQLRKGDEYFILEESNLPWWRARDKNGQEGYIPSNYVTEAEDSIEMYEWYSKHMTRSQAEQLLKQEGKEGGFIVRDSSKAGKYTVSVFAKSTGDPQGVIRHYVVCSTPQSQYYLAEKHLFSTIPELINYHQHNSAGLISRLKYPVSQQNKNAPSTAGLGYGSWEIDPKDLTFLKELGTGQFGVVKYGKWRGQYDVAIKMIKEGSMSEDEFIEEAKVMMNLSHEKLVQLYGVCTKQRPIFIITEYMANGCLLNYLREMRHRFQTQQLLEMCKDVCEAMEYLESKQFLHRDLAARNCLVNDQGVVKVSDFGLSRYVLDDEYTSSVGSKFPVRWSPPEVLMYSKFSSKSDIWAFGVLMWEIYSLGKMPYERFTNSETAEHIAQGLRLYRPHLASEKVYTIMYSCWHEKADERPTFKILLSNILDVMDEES

This assay has as its target human Bruton's Tyrosine Kinase (Btk) (Homo sapiens (Human), UniProt Q06187). Kind of assay: Recombinant Human Bruton's Tyrosine Kinase (Btk) Inhibition Assay (HTRF KinEASE-TK). In kind it is biochemical. The note with it: 20 ng/ml rhBtk, 77 μM ATP (KM), 1 μM TK-Biotin substrate, 90 min; read-out: hBTK IC50. On the technique in general: TR-FRET usually uses a lanthanide donor and a delayed reading to cut background.
In general, IC50 refers to the concentration that inhibits the measured activity by half. `Cc1c(-c2ncnc3[nH]c(-c4ccc(C(=O)N5CCCCC5)cc4)cc23)cccc1N1CCOc2cc(C3CC3)ccc2C1=O` [Example K-5, 8-cyclopropyl-4-[2-methyl-3-[6-[4-(piperidine-1-carbonyl)phenyl]-7H-pyrrolo[2,3-d]pyrimidin-4-yl]phenyl]-2,3-dihydro-1,4-benzoxazepin-5-one]: the IC50 was determined as 171 nM.
As for `Cc1c(-c2ncnc3[nH]c(-c4ccc(C(=O)NCC(F)(F)F)cc4)cc23)cccc1N1CCOc2cc(C3CC3)ccc2C1=O` [Example K-7, 4-[4-[3-(8-cyclopropyl-5-oxo-2,3-dihydro-1,4-benzoxazepin-4-yl)-2-methyl-phenyl]-7H-pyrrolo[2,3-d]pyrimidin-6-yl]-N-(2,2,2-trifluoroethyl)benzamide], the IC50 is > 1000 nM.
`Cc1c(-c2ncnc3[nH]c(-c4ccc(C(=O)N5CC(O)C5)cc4)cc23)cccc1N1CCOc2cc(C3CC3)ccc2C1=O` [Example K-8, 8-cyclopropyl-4-[3-[6-[4-(3-hydroxyazetidine-1-carbonyl)phenyl]-7H-pyrrolo[2,3-d]pyrimidin-4-yl]-2-methyl-phenyl]-2,3-dihydro-1,4-benzoxazepin-5-one]: the IC50 was 360 nM.
The same measure for `Cc1c(-c2ncnc3[nH]c(-c4ccc(C(=O)N5CCCC5)cc4)cc23)cccc1N1CCOc2cc(C3CC3)ccc2C1=O` [Example K-9, 8-cyclopropyl-4-[2-methyl-3-[6-[4-(pyrrolidine-1-carbonyl)phenyl]-7H-pyrrolo[2,3-d]pyrimidin-4-yl]phenyl]-2,3-dihydro-1,4-benzoxazepin-5-one]: 137 nM.
Turning to `COC1CCN(C(=O)c2ccc(-c3cc4c(-c5cccc(N6CCOc7cc(C8CC8)ccc7C6=O)c5C)ncnc4[nH]3)cc2)CC1` [Example K-10, 8-cyclopropyl-4-[3-[6-[4-(4-methoxypiperidine-1-carbonyl)phenyl]-7H-pyrrolo[2,3-d]pyrimidin-4-yl]-2-methyl-phenyl]-2,3-dihydro-1,4-benzoxazepin-5-one], the IC50 came to 233 nM.
The same measure for `COC1CN(C(=O)c2ccc(-c3cc4c(-c5cccc(N6CCOc7cc(C8CC8)ccc7C6=O)c5C)ncnc4[nH]3)cc2)C1` [Example K-11, 8-cyclopropyl-4-[3-[6-[4-(3-methoxyazetidine-1-carbonyl)phenyl]-7H-pyrrolo[2,3-d]pyrimidin-4-yl]-2-methyl-phenyl]-2,3-dihydro-1,4-benzoxazepin-5-one]: 162 nM.
The same measure for `Cc1c(-c2ncnc3[nH]c(-c4ccc(C(=O)N5CCCC5C(=O)O)cc4)cc23)cccc1N1CCOc2cc(C3CC3)ccc2C1=O` (stereo not shown) [Example K-12, 1-[4-[4-[3-(8-cyclopropyl-5-oxo-2,3-dihydro-1,4-benzoxazepin-4-yl)-2-methyl-phenyl]-7H-pyrrolo[2,3-d]pyrimidin-6-yl]benzoyl]pyrrolidine-2-carboxylic acid]: 114 nM; for `Cc1c(-c2ncnc3[nH]c(-c4ccc(C(=O)N5CCCC(C(=O)O)C5)cc4)cc23)cccc1N1CCOc2cc(C3CC3)ccc2C1=O` (stereo not shown) [Example K-13, 1-[4-[4-[3-(8-cyclopropyl-5-oxo-2,3-dihydro-1,4-benzoxazepin-4-yl)-2-methyl-phenyl]-7H-pyrrolo[2,3-d]pyrimidin-6-yl]benzoyl]piperidine-3-carboxylic acid]: 133 nM; for `Cc1c(-c2ncnc3[nH]c(-c4ccc(C(=O)N5CCC(C(=O)O)CC5)cc4)cc23)cccc1N1CCOc2cc(C3CC3)ccc2C1=O` [Example K-14, 1-[4-[4-[3-(8-cyclopropyl-5-oxo-2,3-dihydro-1,4-benzoxazepin-4-yl)-2-methyl-phenyl]-7H-pyrrolo[2,3-d]pyrimidin-6-yl]benzoyl]piperidine-4-carboxylic acid]: > 1000 nM.
Turning to `Cc1c(-c2ncnc3[nH]c(-c4ccc(C(=O)N5CCOCC5)cc4)cc23)cccc1N1CCc2cc(C3CC3)ccc2C1=O` [Example K-15, 6-cyclopropyl-2-[2-methyl-3-[6-[4-(morpholine-4-carbonyl)phenyl]-7H-pyrrolo[2,3-d]pyrimidin-4-yl]phenyl]-3,4-dihydroisoquinolin-1-one], the IC50 was 130 nM.
The value for `Cc1c(-c2ncnc3[nH]c(-c4ccc(C(=O)N5CC(O)C5)cc4)cc23)cccc1N1CCc2cc(C3CC3)ccc2C1=O` [Example K-17, 6-cyclopropyl-2-[3-[6-[4-(3-hydroxyazetidine-1-carbonyl)phenyl]-7H-pyrrolo[2,3-d]pyrimidin-4-yl]-2-methyl-phenyl]-3,4-dihydroisoquinolin-1-one] was 41 nM; that for `Cc1c(-c2ncnc3[nH]c(-c4ccc(C(=O)N5CCN(C)CC5)cc4)cc23)cccc1N1CCc2cc(C3CC3)ccc2C1=O` [Example K-18, 6-cyclopropyl-2-[2-methyl-3-[6-[4-(4-methylpiperazine-1-carbonyl)phenyl]-7H-pyrrolo[2,3-d]pyrimidin-4-yl]phenyl]-3,4-dihydroisoquinolin-1-one] was 208 nM.
As for `Cc1c(-c2ncnc3[nH]c(-c4ccc(C(=O)N5CCN(C)CC5)cc4)cc23)cccc1N1CCc2cc(C3CC3)ccc2C1=O` [Example K-21, 6-cyclopropyl-2-[2-methyl-3-[6-[4-(4-methylpiperazine-1-carbonyl)phenyl]-7H-pyrrolo[2,3-d]pyrimidin-4-yl]phenyl]-3,4-dihydroisoquinolin-1-one], the IC50 is > 1000 nM.
The same measure for `CC1(O)CN(C(=O)c2ccc(-c3cc4c(-c5cccc(N6CCOc7cc(C8CC8)cc(F)c7C6=O)c5CO)ccnc4[nH]3)nc2)C1` [Example L-4, 8-cyclopropyl-6-fluoro-4-[2-(hydroxymethyl)-3-[2-[5-(3-hydroxy-3-methyl-azetidine-1-carbonyl)-2-pyridyl]-1H-pyrrolo[2,3-b]pyridin-4-yl]phenyl]-2,3-dihydro-1,4-benzoxazepin-5-one]: 43 nM; for `Cc1c(-c2ncnc3[nH]c(-c4ccccc4)cc23)cccc1N1CCOc2cc(C3CC3)ccc2C1=O` [Example M-1, 8-cyclopropyl-4-[2-methyl-3-(6-phenyl-7H-pyrrolo[2,3-d]pyrimidin-4-yl)phenyl]-2,3-dihydro-1,4-benzoxazepin-5-one]: > 1000 nM; for `Cc1c(-c2ncnc3[nH]c(-c4ccccc4)cc23)cccc1N1CCc2cc(C3CC3)ccc2C1=O` [Example M-2, 6-cyclopropyl-2-[2-methyl-3-(6-phenyl-7H-pyrrolo[2,3-d]pyrimidin-4-yl)phenyl]-3,4-dihydroisoquinolin-1-one]: > 1000 nM.
The same measure for `Cc1c(-c2ncnc3[nH]c(-c4ccc(N5CCOCC5)cc4)cc23)cccc1N1CCOc2cc(C3CC3)ccc2C1=O` [Example M-3, 8-cyclopropyl-4-[2-methyl-3-[6-(4-morpholinophenyl)-7H-pyrrolo[2,3-d]pyrimidin-4-yl]phenyl]-2,3-dihydro-1,4-benzoxazepin-5-one]: > 1000 nM.
The value for `Cc1c(-c2nc(N)nc3[nH]c(-c4ccc(N5CCOCC5)nc4)cc23)cccc1N1CCOc2cc(C3CC3)ccc2C1=O` [Example N-2, 4-[3-[2-amino-6-(6-morpholino-3-pyridyl)-7H-pyrrolo[2,3-d]pyrimidin-4-yl]-2-methyl-phenyl]-8-cyclopropyl-2,3-dihydro-1,4-benzoxazepin-5-one] was 181 nM; that for `Cc1c(-c2ncnc3[nH]c(C4=CCN(CCCO)CC4)cc23)cccc1N1CCOc2cc(C3CC3)ccc2C1=O` [Example P-1, 8-cyclopropyl-4-[3-[6-[1-(3-hydroxypropyl)-3,6-dihydro-2H-pyridin-4-yl]-7H-pyrrolo[2,3-d]pyrimidin-4-yl]-2-methyl-phenyl]-2,3-dihydro-1,4-benzoxazepin-5-one] was 272 nM.
As to `Cc1c(-c2ncnc3[nH]c(C4=CCN(CCO)CC4)cc23)cccc1N1CCOc2cc(C3CC3)ccc2C1=O` [Example P-2, 8-cyclopropyl-4-[3-[6-[1-(2-hydroxyethyl)-3,6-dihydro-2H-pyridin-4-yl]-7H-pyrrolo[2,3-d]pyrimidin-4-yl]-2-methyl-phenyl]-2,3-dihydro-1,4-benzoxazepin-5-one], the IC50 is 611 nM.
The same measure for `Cc1c(-c2ncnc3[nH]c(C4CCN(CCCO)CC4)cc23)cccc1N1CCOc2cc(C3CC3)ccc2C1=O` [Example P-3, 8-cyclopropyl-4-[3-[6-[1-(3-hydroxypropyl)-4-piperidyl]-7H-pyrrolo[2,3-d]pyrimidin-4-yl]-2-methyl-phenyl]-2,3-dihydro-1,4-benzoxazepin-5-one]: > 1000 nM; for `Cc1c(-c2ncnc3[nH]c(C4=CCCNC4)cc23)cccc1N1CCOc2cc(C3CC3)ccc2C1=O` [Example P-4, 8-cyclopropyl-4-[2-methyl-3-[6-(1,2,3,6-tetrahydropyridin-5-yl)-7H-pyrrolo[2,3-d]pyrimidin-4-yl]phenyl]-2,3-dihydro-1,4-benzoxazepin-5-one]: > 1000 nM; for `CN1CCN(Cc2ccc(-c3cc4c(-c5cccc(N6CCOc7cc(C8CC8)ccc7C6=O)c5)c(C#N)cnc4[nH]3)cc2)CC1` [Example P-6, 4-[3-(8-cyclopropyl-5-oxo-2,3-dihydro-1,4-benzoxazepin-4-yl)phenyl]-2-[4-[(4-methylpiperazin-1-yl)methyl]phenyl]-1H-pyrrolo[2,3-b]pyridine-5-carbonitrile]: 82 nM.
With `O=C(O)c1ccc(-c2cc3c(-c4cccc(N5CCOc6cc(C7CC7)ccc6C5=O)c4CO)ccnc3[nH]2)nc1` [Example P-7, 6-[4-[3-(8-cyclopropyl-5-oxo-2,3-dihydro-1,4-benzoxazepin-4-yl)-2-(hydroxymethyl)phenyl]-1H-pyrrolo[2,3-b]pyridin-2-yl]pyridine-3-carboxylic acid], the IC50 was determined as 46 nM.
The same measure for `O=C1c2ccc(C3CC3)cc2OCCN1c1cccc(-c2ccnc3[nH]c(-c4ccc(C(O)CO)cc4)cc23)c1CO` (stereo not shown) [Example P-8, 8-cyclopropyl-4-[3-[2-[4-(1,2-dihydroxyethyl)phenyl]-1H-pyrrolo[2,3-b]pyridin-4-yl]-2-(hydroxymethyl)phenyl]-2,3-dihydro-1,4-benzoxazepin-5-one]: 25 nM.
